# Results taken from PubChem BioAssay AID449762 (Southern Research Specialized Biocontainment Screening …, 2010).
# Results filed as inconclusive are left out.
# Tested on: M. tuberculosis H37Rv growth inhibition, 7H9 media
# Experiment: M. tuberculosis growth inhibition, HTS (AID 449762);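 further: bacterial growth assessed after seven days of incubation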
# Conditions: for IC90: measured here: IC90 growth inhibition
SMILES,IC50,IC90
CCOC(=O)/C(=N/Nc1ccc(OC)cc1)N1CCCc2ccccc21,78.1 µM,> 100 µM
COC(=O)c1ccc(NC(=O)CSc2nc3ccc(N4C(=O)C5C6C=CC(C6)C5C4=O)cc3s2)cc1 (centres undefined),3.89 µM,5.73 µM
CCOc1cc2c3c(c1)C1(C(=O)N3C(C)(C)CC2C)C(C#N)=C(N)N2C(=C1C#N)Nc1ccccc12 (centres undefined),22.4 µM,> 100 µM
O=c1c2ccccc2nc(/C=C/c2ccccc2)n1-c1ccc(O)cc1,,> 100 µM
C[N+](C)(CCCCCC[N+](C)(C)CCCN1C(=O)c2cccc3cccc(c23)C1=O)CCCN1C(=O)c2cccc3cccc(c23)C1=O,2.59 µM,3.72 µM
Cc1cccc(C(=O)NNC(=S)NC(=O)c2ccccc2)c1,0.59 µM,2.82 µM
O=[N+]([O-])c1cc(C=Nc2ccc3ccccc3c2)ccc1Br,33.5 µM,45.6 µM
O=C(OCn1ncc(Br)c(Br)c1=O)c1ccc(F)cc1,1.17 µM,3.58 µM
CC1=NN(c2ccc(C)c(C)c2)C(=O)/C1=C\C=C\c1ccc([N+](=O)[O-])o1,3.14 µM,15.5 µM
O=C1NN(c2ccc(Br)cc2)C(=O)/C1=C\c1ccc(O)cc1O,88.2 µM,> 100 µM
CC(C)(C)c1ccc(C(O)CCCN2CCC(C(O)(c3ccccc3)c3ccccc3)CC2)cc1 (centres undefined),12.2 µM,17.4 µM
CCC(=O)Nc1nc2ccccc2n1Cc1ccc(Cl)cc1,< 0.2 µM,4.92 µM
CNC(=O)COC(=O)c1ccc(-c2nc3ccccc3s2)s1,2.07 µM,23 µM
CCc1cc(/C(Cc2ccccn2)=N\Nc2ccccc2)c(O)cc1O,60.5 µM,77.4 µM
CCCn1c(Nc2nc3ccccc3n2C)nc2ccccc21,83 µM,88.7 µM
CCCCCCN=C1CC(C)(C)CC(=O)/C1=C(/O)CCC,43 µM,> 100 µM
Cc1ccnc(NC(=O)COc2ccc3c(c2)CCC3)c1,40.2 µM,> 100 µM
Clc1nc2c(-c3ccccc3)nnn2c2ccccc12,9.39 µM,16.6 µM
COC(=O)CSc1ncnc2c1sc1nc3c(cc12)COC(C)(C)C3,3.68 µM,17.3 µM
COc1ccc(SN=C2C(C)=CC(=O)C=C2C)cc1,11.9 µM,13.5 µM
COc1ccc(-c2nsc3c(N4CCCCC4C)ncnc23)cc1 (centres undefined),41.2 µM,56.8 µM
c1ccc(-c2nc3nonc3nc2-c2ccccc2)cc1,33.5 µM,43.9 µM

SMILES,IC50,IC90
COc1ccc(/C=C/CN2CCC(CO)(Cc3ccccc3Cl)CC2)cc1,23.1 µM,26.6 µM
Fc1ccc2[nH]c3c(NCc4ccccc4)ncnc3c2c1,23.5 µM,26.7 µM
Cc1nc(SCC(=O)NCC2CCCO2)c2c3c(sc2n1)CCCC3 (centres undefined),22.2 µM,24.6 µM
Cc1ccc(/C=C2\C(=O)Nc3ccccc32)o1,3.54 µM,6.03 µM
Cn1cnnc1SCc1ccc(C(=O)N=Nc2c(O)n(Cc3ccc(Cl)cc3)c3ccccc23)cc1,2.97 µM,3.4 µM
Cc1cc(NC2CCCCC2)nc(-c2ccccc2O)n1,39.2 µM,51.3 µM
O=C(OCc1ccccc1)c1cccc(-c2nnn(Cc3ccccc3)n2)c1,67.7 µM,> 100 µM
CC1CC(C)CN(C(=O)C2CCC(CNc3c(N4CCCCC4)c(=O)c3=O)CC2)C1 (centres undefined),19.3 µM,71.7 µM
COc1ccccc1/C=C/C(=O)Nc1ccc(S(=O)(=O)Nc2cc(C)on2)cc1,5.01 µM,17.3 µM
CN(C)C(=O)c1ccc(NC(=O)COC(=O)c2cc3c(s2)CCCCC3)cc1,45.8 µM,> 100 µM
C#CCOCCOCCOCCNc1nc(N2CCN(C(=O)C(Cc3ccc(O)cc3)n3cc(C(N)CC(C)C)nn3)CC2)nc(N2CCN(C(=O)C(Cc3cc4ccccc4[nH]3)n3cc(C(N)Cc4ccc(O)cc4)nn3)CC2)n1 (centres undefined),6.03 µM,6.93 µM
Cc1cc2c(cc1C)/C(=N/NC(=O)c1ccccn1)CCC2,7.91 µM,23.2 µM
CCCCCCCNC(=O)c1ccc(N2CCC3(CC2)OCCO3)c([N+](=O)[O-])c1,37.9 µM,47.2 µM
CC1(c2ccc(OC(F)F)cc2)NC(=O)N(CC(=O)c2ccc3c(c2)OCO3)C1=O (centres undefined),23.6 µM,32.2 µM
COc1ccc(NCc2nnc(SCC(=O)c3ccc(OC)cc3)o2)cc1,7.11 µM,13.4 µM
CC(NC(=O)c1ccccc1Br)C1CC2CCC1C2 (centres undefined),21 µM,> 100 µM
N#Cc1c([N+](=O)[O-])cc([N+](=O)[O-])cc1S(=O)(=O)Cc1ccccc1,15.3 µM,22.6 µM
COC(=O)[C@@H](NC(=O)O[C@@H]1C(=O)c2ccc(OC)cc2O[C@H]1c1cccc(C(F)(F)F)c1)C(C)C,56.2 µM,> 100 µM
C/C(CCc1ccc2c(c1)OCO2)=N\NC(=S)NC(C)C,35.7 µM,48.4 µM
O=[N+]([O-])c1cn(-c2nc(-c3ccco3)cc(C(F)(F)F)n2)cn1,1.77 µM,22 µM
Clc1ccc(CSc2ncn[nH]2)cc1,,> 100 µM
[O-][n+]1c2ccccc2c2n1CCN1CCOC21c1ccc(Cl)cc1 (centres undefined),26.1 µM,68 µM

SMILES,IC50,IC90
CCCCCCOC(=O)C(C#N)c1nc2ccccc2nc1N1CCN(CC)CC1 (centres undefined),20.1 µM,29.7 µM
C/C(=C\C(=O)c1ccccc1)Nc1ccc(Cl)c(Br)c1,,> 100 µM
Cc1cc(/C=C(/C#N)c2cccc(F)c2)c(C)n1-c1cccnc1,,> 100 µM
COc1ccccc1N1CCN(CCCCOc2cccc3ccccc23)CC1,34 µM,44.5 µM
O=[N+]([O-])c1ccc(-c2nc(-c3cccs3)c(-c3cccs3)[nH]2)cc1,21.7 µM,> 100 µM
COCCN(C(=O)C1CC(=O)N(Cc2ccccc2)C1)c1nc(-c2ccc([N+](=O)[O-])cc2)cs1 (centres undefined),24.5 µM,25.4 µM
COc1ccc(NC(=O)c2oc3ccc(S(=O)(=O)N4CCOCC4)cc3c2C)cc1,0.68 µM,7.38 µM
O=C([O-])c1ccccc1-[n+]1c(-c2ccccc2)cc(-c2ccccc2)cc1-c1ccccc1,15.3 µM,20.5 µM
Nc1ccc(N=Nc2ccccc2)c2cccnc12,10.9 µM,49.5 µM
Cc1nc(NCCc2ccccc2)c2oc3ccccc3c2n1,6.49 µM,14.2 µM
COc1ccc(-c2nnc(NC(=O)c3ccc([N+](=O)[O-])o3)o2)c(OC)c1,1.05 µM,3.04 µM
CCCCN1C(=N)N([C@@H](CCC)CN2CCC[C@H]2CN2C(N)=NC[C@@H]2Cc2ccccc2)C[C@H]1Cc1ccccc1,12.8 µM,18.2 µM
Cc1ccc(/C(N)=N/OC(=O)N2c3ccccc3Sc3ccccc32)cc1,52.4 µM,> 100 µM
O=c1[nH][nH]c(-c2ccccc2O)c1C(C[N+](=O)[O-])c1cccc(Cl)c1 (centres undefined),74.6 µM,> 100 µM
Cc1ccc(C(c2nnnn2Cc2cccs2)N2CCN(Cc3ccc4c(c3)OCO4)CC2)cc1 (centres undefined),21 µM,27.9 µM
Cc1ccc(C)c(S(=O)(=O)N2CCC(c3nc4c(nnn4Cc4ccc5c(c4)OCCO5)c(=O)[nH]3)CC2)c1,23.1 µM,> 100 µM
COc1cc2[nH]c(Cl)c([N+](=O)[O-])c2cc1OC,99.6 µM,> 100 µM
COc1ccc(SC[C@H](Cc2ccccc2)N2CCN(CCc3ccccc3)CCC2=O)cc1,36.8 µM,46.7 µM
COC(=O)/C(=C1/Oc2cc(C)oc(=O)c2S1)C(F)(F)F,6.24 µM,> 100 µM
CCCCCCCCSc1nnc(CSc2nc3nc(C)cc(C)n3n2)o1,1.05 µM,8.29 µM
CN(C(=S)NC(=O)c1ccc(Cl)cc1)C1CCCCC1,3.1 µM,13.7 µM
Cc1cc(C(=O)N[C@H](c2ccccc2)[C@@]2(C)C[C@@H]2[C@@H](C)C(=O)Nc2ccc3ccccc3c2)n(C)n1,24.4 µM,27.6 µM

SMILES,IC50,IC90
Cc1ccccc1CSc1nsc(N)n1,6.7 µM,19.6 µM
Cc1nc2ccc(NC(=O)N(C(C)C)C(C)C)cc2s1,,> 100 µM
Cc1ccc(-c2c[n+](CC(=O)N3c4ccccc4Sc4ccccc43)c3n2CCC3)cc1,12.9 µM,20.2 µM
C=CCOc1ccccc1CN(C(=O)CCl)c1ccc2c(c1)OCO2,0.92 µM,2.58 µM
Cc1ccc2nc(/N=C(\N)NC(=O)NC3CCCCC3)nc(C)c2c1,2.22 µM,8.85 µM
CCOC(=O)N1CCC(n2c(SCC(=O)OCc3ccccc3)nc3ccsc3c2=O)CC1,27.1 µM,> 100 µM
N#CC1=C(c2ccccc2)/C(=C/c2ccccc2)OC1=O,10.2 µM,20.1 µM
Cc1sc2ncnc(N3CCC(C(=O)N(CC(C)C)c4nc5ccccc5s4)CC3)c2c1C,84.5 µM,> 100 µM
C/C(=N/Nc1cc(-c2ccccc2)nc(-c2ccccc2)n1)c1ccc(O)cc1,9.45 µM,13.8 µM
C#CCOCCOCCOCCNc1nc(N2CCN(C(=O)CCCCCCCCCCNC(=O)[C@H](CCCCN)n3cc(CCCC(=O)O)nn3)CC2)nc(N2CCN(C(=O)CCCCCCCCCCNC(=O)[C@H](CCCN=C(N)N)n3cc(C[C@@H](C)CC)nn3)CC2)n1,4.78 µM,5.97 µM
CCCCNc1c(-c2ccc(SC3CCCCC3)c(OC)c2)nc2ccc(C)cn12,11.4 µM,12.8 µM
CC(C)(C)NC(=O)COC(=O)c1cc(Br)ccc1Cl,27.8 µM,65.1 µM
O=C(/C=C/c1ccco1)Oc1ccc(C(=S)N2CCOCC2)cc1,38.7 µM,> 100 µM
CCC(C)NC(=O)c1cn(CC)c2cc(N3CCN(C(=O)c4ccco4)CC3)c(F)cc2c1=O (centres undefined),9.33 µM,30.9 µM
Nc1cc([N+](=O)[O-])cc2oc(-c3ccccc3)cc12,98.3 µM,> 100 µM
CC(C)(C)OC(=O)NCCCCCc1nnc(SCc2ccc(F)cc2)o1,14.2 µM,48.2 µM
COc1ccc(COc2cc(-c3cccc(OC)c3)nc3ccc(NC(=O)c4ccc(OC)cc4)cc23)cc1,5.42 µM,> 100 µM
NC1=NC2(CCC(c3ccccc3)CC2)n2c(nc3ccccc32)N1 (centres undefined),28.6 µM,38.3 µM
Oc1ccc(/C=N/n2c3ccccc3c3ccccc32)cc1,,> 100 µM
